Measurements published in patent US12115170B2, “Compositions and methods of clostridiodides difficile treatment, decolonization, and prevention” (Wisconsin Alumni Research Foundation, priority 2021, dated 2024).
Converted amounts (≈) assume the structure as drawn. Where two headings read alike, the source gives them in different places.

Assays:
[1] = tested on: C. difficile spores (all strains); test: Spore washing and germination, all strains; conditions: 0.5 mg/ml docusate exposure
[2] = tested on: C. difficile VPI 10463; test: CDI murine model, non-severe model; type: in vivo, C57BL/6 mice
[3] = tested on: C. difficile ATCC 700057 (VPI 11186); test: MIC by broth microdilution, control strain ATCC 700057; type: cell-based, Clostridioides difficile
Protocol: (§1) Susceptibility testing: The minimum inhibitory concentration (MIC), defined as the lowest concentration of an antimicrobial that will inhibit the visible growth of a microorganism, was determined for all isolates. […] Microwell plates containing omadacycline and BHI were used on the same day as their creation, and all media were reduced for 24 h prior. Media used to inoculate plates were created by suspending 24-h colonies in BHI to a McFarland standard of 0.5, which was added to each well, sufficient to about 1×10^6 CFU/ml. A total volume of […] was used, and plates were read after 24 h of incubation in the anaerobic hood. The lowest concentration without growth was determined to be the MIC. In accordance with CLSI recommendations, C. difficile ATCC 700057 was used as a control for each plate.

[4] = tested on: C. difficile VPI 10463 (ATCC 43255); test: MIC by broth microdilution, VPI 10463; type: cell-based; conditions: Clostridioides difficile
Protocol: as §1

[5] = tested on: C. difficile 630 (ATCC BAA-1382); test: MIC by broth microdilution, 630; type: cell-based; conditions: Clostridioides difficile
Protocol: as §1

[6] = tested on: C. difficile 4118 (ATCC 1870); test: MIC by broth microdilution, ATCC 1870; type: cell-based; conditions: Clostridioides difficile
Protocol: as §1

[7] = tested on: C. difficile spores (four strains tested); test: Time-kill curves, S-CFU, four strains tested; type: cell-based, Clostridioides difficile
[8] = tested on: C. difficile ATCC 1870 vegetative cells; test: Time-kill curves, T-CFU versus S-CFU, ATCC 1870; type: cell-based, Clostridioides difficile
[9] = tested on: C. difficile VPI 10463; test: CDI murine model, severe model; type: in vivo, C57BL/6 mice
[10] = tested on: C. difficile strains used in this study; test: MIC by broth microdilution, range over the strains used in this study; type: cell-based; conditions: Clostridioides difficile, read-out: MICs
Protocol: as §1

[11] = cited from earlier work; for Fecal concentration: clinical dosing, oral
[12] = tested on: C. difficile ICCD 0715 (clinical strain); test: MIC by broth microdilution, ICCD 0715; type: cell-based; conditions: Clostridioides difficile, 24 h
Protocol: as §1

[13] = ATCC 700057 (VPI 11186), R038, reduced BHI, 24 h, highest of replicates
[14] = non-severe model, environmental contamination

CCCCC(CC)COC(=O)CC(C(=O)OCC(CC)CCCC)S(=O)(=O)O (centres unmarked) [docusate]
Percent germination compared to all other treatments [1]: highest percent germination

CN[C@H](CC(C)C)C(=O)N[C@H]1C(=O)N[C@@H](CC(N)=O)C(=O)N[C@H]2C(=O)N[C@H]3C(=O)N[C@H](C(=O)N[C@H](C(=O)O)c4cc(O)cc(O)c4-c4cc3ccc4O)[C@H](O)c3ccc(c(Cl)c3)Oc3cc2cc(c3O[C@@H]2O[C@H](CO)[C@@H](O)[C@H](O)[C@H]2O[C@H]2C[C@](C)(N)[C@H](O)[C@H](C)O2)Oc2ccc(cc2Cl)[C@H]1O [Vancomycin, vancomycin]
Clinical scoring and weight loss (disease) ([2]; mouse, in vivo): more disease | Final survival ([2]; mouse, in vivo): 60% | Final survival, survivors/total mice ([2]; mouse, in vivo): 6/10 | Mice positive for C. difficile spores (spore shedding), day 15 ([2]; mouse, in vivo): 100% | Mice succumbed to rCDI ([2]; mouse, in vivo): 20% | Mortality ([2]; mouse, in vivo): 40% | Positive cage swab rate, day 10 ([2]; mouse, in vivo): 8.3% | Positive cage swabs, day 13 ([2]; mouse, in vivo): 25% | Toxin amounts, day 10 and 13 ([2]; mouse, in vivo): higher | MIC [3, 13]: 2 µg/mL (≈ 1.38 µM) | MIC ([3]; Clostridioides difficile, ATCC700057, 24 h): 2 µg/mL (≈ 1.38 µM) | MIC ([4]; ATCC43255, 24 h): 1 µg/mL (≈ 0.69 µM) | MIC ([5]; ATCCBAA1382, 24 h): 4 µg/mL (≈ 2.76 µM) | MIC ([6]; ATCC1870, 24 h): 2 µg/mL (≈ 1.38 µM) | Effect on S-CFU [7]: did not affect S-CFU | Killing of vegetative cells (T-CFU equaled S-CFU) [8]: effective at killing vegetative cells | Median toxin A and B production, day 2 ([9]; mouse, in vivo): significantly higher | Toxin amounts, day 1 ([9]; mouse, in vivo): similar | Weight loss and clinical scoring ([9]; mouse, in vivo): higher | Day 15 survival ([9]; mouse, in vivo, po): 13.3% | MIC [10]: 1 to 4 µg/mL (≈ 0.69 to 2.76 µM) | Fecal concentration [11]: 2,000 mg/liter | MIC [12]: 4 µg/mL (≈ 2.76 µM)

CN(C)c1cc(CNCC(C)(C)C)c(O)c2c1C[C@H]1C[C@H]3[C@H](N(C)C)C(O)=C(C(N)=O)C(=O)[C@@]3(O)C(O)=C1C2=O [Omadacycline, omadacycline]
Mice succumbed to rCDI ([2]; by day 10): 20% | Final survival, survivors/total mice ([2]; mouse, in vivo): 6/10 | Mortality ([2]; mouse, in vivo): 40% | Mice positive for C. difficile spores (spore shedding), day 15 ([2]; non-severe model): 60% | Final survival ([2]; non-severe model, after clindamycin-induced relapse (days 10-12)): 60% | Positive cage swab rate, day 10 [2, 14]: 8.3% | Positive cage swabs, day 13 [2, 14]: no positive swabs | MIC [3, 13]: 0.125 µg/mL (≈ 0.225 µM) | MIC ([3]; Clostridioides difficile, ATCC700057, ATCC 700057 (VPI 11186), R038, reduced BHI, 24 h, highest of replicates, read-out: MIC): 0.125 µg/mL (≈ 0.225 µM) | MIC ([4]; ATCC43255, VP1 10463 (ATCC 43255), R087, reduced BHI, 24 h, read-out: MIC): 0.063 µg/mL (≈ 0.113 µM) | MIC ([5]; ATCCBAA1382, 630 (ATCC BAA-1382), R012, reduced BHI, 24 h, read-out: MIC): 0.125 µg/mL (≈ 0.225 µM) | MIC ([6]; ATCC1870, 4118 (ATCC 1870), R027, reduced BHI, 24 h, read-out: MIC): 0.031 µg/mL (≈ 0.0557 µM) | Effect on S-CFU ([7]; antibiotic in BHI without germinants, throughout the treatment period (96 h), four strains): did not affect S-CFU | Killing of vegetative cells (T-CFU equaled S-CFU) ([8]; ATCC 1870, 24 to 96 h, with or without germinants): effective at killing vegetative cells | Toxin amounts, day 1 ([9]; mouse, in vivo): similar | Day 15 survival ([9]; severe model, treatment started 30 hours after spore gavage, once daily until day 5, OMC 0.25 mg, VAN 1.5 mg oral gavage): 60% | MIC ([10]; range for the strains used in this study): 0.031 to 0.125 µg/mL (≈ 0.0557 to 0.225 µM) | Fecal concentration [11]: approximately 430 mg/liter | Fecal excretion ([11]; in vivo): 81% | MIC ([12]; ICCD 0715 (clinical strain), R027, reduced BHI, read-out: MIC): 0.031 µg/mL (≈ 0.0557 µM)
